EC50 data for 1 molecule are collected here from publication PMC6414448, “Acaricidal Mechanism of Scopoletin Against Tetranychus cinnabarinus” (Frontiers in Physiology, 2019).

The target of the assay is T1, TcGPCR (G-protein-coupled neuropeptide receptor) (Tetranychus cinnabarinus, UniProt A0A2L1GE98).
T1 construct: full ORF in pcDNA3.1(+), transient expression in CHO-WTA11 cells with aequorin and Galpha16; seven TM helices, rhodopsin-like; T. urticae orthologue locus tetur02g03830
T1 sequence (A0A2L1GE98 1-513): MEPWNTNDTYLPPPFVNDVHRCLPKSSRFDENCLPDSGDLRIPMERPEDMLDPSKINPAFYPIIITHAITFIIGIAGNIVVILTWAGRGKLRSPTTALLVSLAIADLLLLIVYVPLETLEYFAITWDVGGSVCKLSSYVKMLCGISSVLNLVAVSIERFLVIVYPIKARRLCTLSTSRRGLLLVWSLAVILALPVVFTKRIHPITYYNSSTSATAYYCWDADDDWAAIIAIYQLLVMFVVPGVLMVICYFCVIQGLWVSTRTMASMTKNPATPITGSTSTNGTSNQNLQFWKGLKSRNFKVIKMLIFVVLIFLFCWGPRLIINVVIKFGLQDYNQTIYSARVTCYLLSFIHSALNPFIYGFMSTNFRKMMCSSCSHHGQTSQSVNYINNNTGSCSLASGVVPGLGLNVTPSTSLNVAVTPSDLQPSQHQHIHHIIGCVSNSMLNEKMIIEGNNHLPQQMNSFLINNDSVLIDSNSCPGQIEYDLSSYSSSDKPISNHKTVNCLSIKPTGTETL
The experiment in a line: aequorin luminescence calcium mobilization in transfected CHO-WTA11 cells. The class given is cell-based. The text has this: aequorin luminescence calcium mobilization in transfected CHO-WTA11 cells on TcGPCR (G-protein-coupled neuropeptide receptor) | CHO cells expressing TcGPCR was induced by scopoletin in a concentration-dependent manner

The term EC50 denotes the concentration giving half of the maximal effect.

For the molecule `COc1cc2ccc(=O)oc2cc1O` [scopoletin], the EC50 stood at 280 nM.
